Measurements as given in US20040033213A1, “Methods of modulating dendritic cells using adjuvants” (Corixa Corporation, priority 2002, published 2004).

How the values were obtained:
[1] = system: cultured human dendritic cells (DC); assay: Flow cytometry of cell surface activation markers on human DCs restimulated 72 hours with AGPs (titration); format: cell-based; conditions: for DC expression of CD83 (in words): FIG. 16
Protocol: Dendritic cells are developed in-vitro from human CD14+ monocyte precursors using standard 7 day GM-CSF ([…]) and IL-4 ([…]) culture conditions. The cultured DCs are >90% CD11c^+/HLA-DR^+/lineage^− by flow cytometry analysis. FIGS. 15-18 show the results of flow cytometry analysis of gated CD11c^+/HLA-DR^+/lineage^− human DCs after they were restimulated in-vitro for 72 hours in the presence of selected AGPs at a titration range of 0.1 μg/ml-2 μg/ml. Data is expressed as the percent of gated DCs which are positive for the indicated marker (y-axis) versus the logo10 of the AGP or lipid A concentration. R595 LPS was used in each induction at 10 ng/ml as a positive control—the negative control was unstimulated human dendritic cells cultured for 72 hours in the same medium conditions used for AGP stimulation. Data was analyzed using non-linear regression analysis—all data was modeled using a 3rd order polynomial to determiine the best curve fit.

[2] = system: cultured human DCs + autologous T cells; format: cell-based
[3] = system: cultured human dendritic cells (DC); assay: Flow cytometry of cell surface activation markers on human DCs restimulated 72 hours with AGPs (titration); format: cell-based; conditions: titration 0.1-2 μg/ml, FIG. 18
[4] = system: cryogenically stored 10 day murine DCs + D011.10 effector T cells; assay: Cryogenically preserved 10 day murine DCs in the D011.10 T cell assay (IFN-γ ELISA); format: cell-based
Protocol: In order to determine if 10 day GM-CSF precultured DCs could be recovered from cryogenic storage and still retain their functional potential, studies were carried out to determine the functional integrity of LPS- and RC-527-stimulated, cryogenically preserved, 10 day DCs in the D011.10 T cell assay system. Specifically, 10 day GM-CSF-precultured DCs were stored in liquid nitrogen for several weeks. The cells were subsequently thawed and maintained for 24 hours in tissue culture in the presence of GM-CSF. After 24 hours in this “resting” culture, DCs were pulsed with ova for four hours and potentiated with LPS for 24 hours prior to placing them against D011.10 effector T cells at 4:1 and 8:1 ratios.
D011.10 effector T cell cultures were maintained for 24 hours and 48 hours, and culture supernatants were collected at both time points. These supernatants were tested for IFN-γ using a commercial ELISA system. The IFNγ response induced either by antigen-pulsed, lipid A stimulated DCs after 24 hours incubation with D011.10 T cells (FIG. 13a) or by LPS and RC-527 stimulated, cryogenically stored, cultured DCs after 48 hours of incubation with D011.10 effector T cells (FIG. 13b) was measured.

[5] = system: KJ1 positive D011.10 CD4 T cells; assay: OVA pulsed DC transfer into D011.10 loaded Balb/c mice; format: in vivo; conditions: for Total KJ1 Positive Cells/Spleen: others 100 ng/ml
Protocol: In a second experiment 6-7 day bone marrow derived (Balb/c) DCs were pulsed with antigen and subsequently stimulated overnight with LPS, MPL® immunostimulant-S, and RC-527 (Table 6). 5×10^6 D011.10 CD4 (KJ1-positive) T cells were transferred into Balb/c mice, and 24 hours later ova-pulsed cultured, DCs from the control group (pulsed with ova only) and the indicated test DCs potentiated with LPS, MPL® immunostimulant-S or RC-527 were also injected intravenously. […] The transferred DCs stimulated with ova only, ova+LPS and ova+MPL® immunostimulant-S produced a similar effect in inducing the amplification of D011.10 T lymphocyte numbers above the value observed when untreated DCs (i.e., no ova and no lipid A) were used as the putative APC source and transfected into Balb/c mice preinjected with KJ1 CD4 cells.
5×10^6 KJ1 positive D011.10 spleen cells were injected into Balb/c mice (I.V.) on day zero minus 1; 24 hrs later 5×10^6 DC's from the indicated in vitro induction test groups were injected I.V. and the spleens from test animals were harvested 3 and 5 days later for total KJ1 enumeration.

[6] = 72 hours, titration 0.1-2 μg/ml, FIG. 15
[7] = 72 hours, titration 0.1-2 μg/ml
[8] = single analysis, one normal donor

Structure (SMILES)	concentration at which the CD80 effect appears to plateau ([1]; 72 hours, FIG. 15)	concentration at which the CD86 effect plateaus or maximizes ([1]; 72 hours, FIG. 18)	cell surface expression of CD80 (in words) [1, 6]	DC expression of CD83 (in words) [1, 7]	overall induction of DC maturation and co-stimulatory molecule expression (in words) [1, 8]	T cell proliferation / DC activation, CPM 3H-thymidine response (in words) [2]	cell surface expression of CD40 (in words) ([1]; 72 hours, titration 0.1-2 μg/ml, FIG. 17)	concentration at which the effect is usually already maximized [1, 8]	CD86 expression, mean channel fluorescence (in words) [3]	IFN-γ response of cryogenically stored DCs after antigen pulsing and activation (in words) ([4]; compared with unfrozen 10 day DCs)	IFN-γ response, 48 hours versus 24 hours of incubation (in words) ([4]; cryogenically stored DCs, FIG. 13)	Total KJ1 Positive Cells/Spleen ([5]; Day 3 after I.V. transfer of 5×10^6 OVA pulsed DCs stimulated in vitro, LPS 10 ng/ml)	Total KJ1 Positive Cells/Spleen ([5]; Day 5 after I.V. transfer of 5×10^6 OVA pulsed DCs stimulated in vitro, LPS 10 ng/ml)	splenic KJ1+ CD4 T cell numbers (in words) ([5]; day 3 and day 5 after transfer of stimulated DCs)	KJ1+ CD4 response, % of all splenic CD4 cells ([5]; second, similar DC transfer experiment, at 5 days, LPS 10 ng/ml, MPL-S 100 ng/ml)
CCCCCCCCCCCCCC(=O)O[C@H](CCCCCCCCCCC)CC(=O)NCCO[C@@H]1O[C@H](CO)[C@@H](OP(=O)(O)O)[C@H](OC(=O)C[C@@H](CCCCCCCCCCC)OC(=O)CCCCCCCCCCCCC)[C@H]1NC(=O)C[C@@H](CCCCCCCCCCC)OC(=O)CCCCCCCCCCCCC.CCN(CC)CC [RC-529, 2-[(R)-3-Tetradecanoyloxytetradecanoylamino]ethyl 2-Deoxy-4-O-phosphono-3-O-[(R)-3-tetradecanoyoxytetradecanoyl]-2-[(R)-3-tetradecanoyoxytetradecanoylamino]-β-D-glucopyranoside triethylammonium salt]	1 µg/mL	1 µg/mL	lowest overall increase in CD80 expression	weak overall increase in CD83 expression	very low to marginally positive CD80 and CD83 expression	comparable in their effect and quantitatively higher than the background response									
CCCCCCCCCCCC(CC(=O)NC(COC1OC(CO)C(OP(=O)(O)O)C(OC(=O)CC(CCCCCCCCCCC)OC(=O)CCCCCCCCC)C1NC(=O)CC(CCCCCCCCCCC)OC(=O)CCCCCCCCC)C(=O)O)OC(=O)CCCCCCCCC (stereo not shown) [RC-527]			highest level of increased cell surface expression	highest DC expression levels	strongest induction of DC maturation and co-stimulatory molecule expression of all the AGPs tested	highest levels of DC activation compared to MPL® immunostimulant	highest elevated cell surface expression	100 ng/mL	highest stimulation of CD86 expression over most of the titration range	fully capable of supporting an IFNγ response	significantly stronger IFN-γ response after 48 hours	4.1 × 10^6 Cells/Spleen	3.0 × 10^6 Cells/Spleen	higher levels of splenic KJ1^+ CD4 T cell numbers than any of the other test groups at both time points	3.9%
